In patent publication US11548883B2, “Compounds as autotaxin inhibitors and pharmaceutical compositions comprising the same” (LegoChem Biosciences, Inc., priority 2017, dated 2023) one finds IC50 data, which are given here for ten molecules.

As a reminder, the IC50 is the concentration needed to halve the response being measured. Low values mean greater potency, high ones weaker potency.

Common to all, as to assay type: biochemical
Experiment [1] deals with LPA production in blood serum. The experiment in a line: Inhibitory activity on LPA production in mouse blood serum. The following applies: mouse blood serum (m), 18:1 LPC added.
Experiment [2] deals with LPA production in blood serum. The experiment in a line: Inhibitory activity on LPA production in human blood serum. As to conditions: human blood serum (h), 18:1 LPC added.
In another experiment the target is human ENPP2 (Homo sapiens (Human), UniProt Q13822). The experiment in a line: Inhibitory activity on human ENPP2 (FS-3 assay). The following applies: human ENPP2, FS-3 substrate, Table 2. On the procedure: Two-fold dilution of each test compound solution (10 μM, 100% dimethyl sulfoxide) is carried out on 96-well V bottom plate (Costar 3363). After ten-fold dilution of each the test compound solution (100% dimethyl sulfoxide) with deionized distilled water, 10 μL of the diluted each compound solution (10% dimethyl sulfoxide) was aliquoted to a black flat bottom 96-well plate (Costar 3915).

`O=C(Cn1cc(-c2cnc(NC3Cc4ccccc4C3)nc2)c(OCc2ccccc2)n1)N1CCc2[nH]nnc2C1` [Compound 63, 2-[3-(benzyloxy)-4-{2-[(2,3-dihydro-1H-inden-2-yl)amino]pyrimidin-5-yl}-1H-pyrazol-1-yl]-1-{1H,4H,5H,6H,7H-[1,2,3]triazolo[4,5-c]pyridin-5-yl}ethan-1-one]: the IC50 in experiment [1] came to 12 nM; in experiment [2] it was 10 nM.

Turning to `CCc1nn(CC(=O)N2CCc3[nH]nnc3C2)cc1-c1cnc(NC2Cc3ccccc3C2)nc1` [Compound 79, 2-(4-{2-[(2,3-dihydro-1H-inden-2-yl)amino]pyrimidin-5-yl}-3-ethyl-1H-pyrazol-1-yl)-1-{1H,4H,5H,6H,7H-[1,2,3]triazolo[4,5-c]pyridin-5-yl}ethan-1-one], the IC50 on human ENPP2 is 1.6 nM; in experiment [2] it was 5 nM.

With `O=C(Cn1cc(-c2cnc(NC3Cc4ccccc4C3)nc2)c(CN2CCOCC2)n1)N1CCc2[nH]nnc2C1` [Compound 80, 2-(4-{2-[(2,3-dihydro-1H-inden-2-yl)amino]pyrimidin-5-yl}-3-(morpholin-4-ylmethyl)-1H-pyrazol-1-yl)-1-{1H,4H,5H,6H,7H-[1,2,3]triazolo[4,5-c]pyridin-5-yl}ethan-1-one], the results for the IC50 (against human ENPP2; in experiment [1]) were less than 1.56 nM and 6 nM, respectively.

Turning to `O=C(Cn1cc(-c2cnc(NC3Cc4ccccc4C3)nc2)cn1)N1CCc2[nH]nnc2C1` [Compound 56, 2-(4-{2-[(2,3-dihydro-1H-inden-2-yl)amino]pyrimidin-5-yl}-1H-pyrazol-1-yl)-1-{1H,4H,5H,6H,7H-[1,2,3]triazolo[4,5-c]pyridin-5-yl}ethan-1-one], the IC50 against human ENPP2 was found to be 2.2 nM; in experiment [1], 13 nM.

As for `O=C(Cn1cc(-c2cnc(NC3Cc4ccccc4C3)nc2)c(CN2CCCCC2)n1)N1CCc2[nH]nnc2C1` [Compound 81, 2-(4-{2-[(2,3-dihydro-1H-inden-2-yl)amino]pyrimidin-5-yl}-3-(piperidin-1-ylmethyl)-1H-pyrazol-1-yl)-1-{1H,4H,5H,6H,7H-[1,2,3]triazolo[4,5-c]pyridin-5-yl}ethan-1-one], the half-maximal inhibitory concentration (IC50) was less than 1.56 nM against human ENPP2 and 5 nM in experiment [1].

On to `CCN1CCC(Oc2nn(CC(=O)N3CCc4[nH]nnc4C3)cc2-c2cnc(NC3Cc4ccccc4C3)nc2)CC1` [Compound 70, 2-(4-{2-[(2,3-dihydro-1H-inden-2-yl)amino]pyrimidin-5-yl}-3-[(1-ethylpiperidin-4-yl)oxy]-1H-pyrazol-1-yl)-1-{1H,4H,5H,6H,7H-[1,2,3]triazolo[4,5-c]pyridin-5-yl}ethan-1-one], for which the IC50 at human ENPP2 stood at 2.3 nM; in experiment [1], 11 nM.

As for `O=C(Cn1cc(-c2cnc(NC3Cc4ccccc4C3)nc2)c(O)n1)N1CCc2[nH]nnc2C1` [Compound 65, 2-(4-{2-[(2,3-dihydro-1H-inden-2-yl)amino]pyrimidin-5-yl}-3-hydroxy-1H-pyrazol-1-yl)-1-{1H,4H,5H,6H,7H-[1,2,3]triazolo[4,5-c]pyridin-5-yl}ethan-1-one], the IC50 at human ENPP2 was less than 1.56 nM; in experiment [1], 30 nM.

`O=C(O)COc1nn(CC(=O)N2CCc3[nH]nnc3C2)cc1-c1cnc(NC2Cc3ccccc3C2)nc1` [Compound 73, 2-[(4-{2-[(2,3-dihydro-1H-inden-2-yl)amino]pyrimidin-5-yl}-1-(2-oxo-2-{1H,4H,5H,6H,7H-[1,2,3]triazolo[4,5-c]pyridin-5-yl}ethyl)-1H-pyrazol-3-yl)oxy]acetic Acid]: the values for the IC50 (at human ENPP2; in experiment [1]) were 3.7 nM and 69 nM, respectively.

For `CCN1CC(Oc2nn(CC(=O)N3CCc4[nH]nnc4C3)cc2-c2cnc(NC3Cc4ccccc4C3)nc2)C1` [Compound 68, 2-(4-{2-[(2,3-dihydro-1H-inden-2-yl)amino]pyrimidin-5-yl}-3-[(1-ethylazetidin-3-yl)oxy]-1H-pyrazol-1-yl)-1-{1H,4H,5H,6H,7H-[1,2,3]triazolo[4,5-c]pyridin-5-yl}ethan-1-one], the values for the IC50 (against human ENPP2; in experiment [1]) were 1.8 nM and 32 nM, respectively.

Regarding `O=C(Cn1cc(-c2cnc(NC3Cc4ccccc4C3)nc2)c(OCCN2CCOCC2)n1)N1CCc2[nH]nnc2C1` [Compound 66, 2-(4-{2-[(2,3-dihydro-1H-inden-2-yl)amino]pyrimidin-5-yl}-3-[2-(morpholin-4-yl)ethoxy]-1H-pyrazol-1-yl)-1-{1H,4H,5H,6H,7H-[1,2,3]triazolo[4,5-c]pyridin-5-yl}ethan-1-one], the IC50 at human ENPP2 is 1.9 nM; in experiment [1] it was 12 nM.
